Where two headings read alike, the source gives them in different places.
What was measured:
NZB5 = test: Cellular growth inhibition, NZB5 (3H-thymidine incorporation); type: cell-based, human
Experimental: (§1) The compounds were evaluated against two early passage human cell lines NZB5 and NZOV9 (Marshall et al., Oncol. Res. 2004, 14, 297). The cells were grown in ITS medium (α-modified minimal essential medium supplemented insulin, transferrin, selenite, and 5% fetal bovine serum) and grown on 96-well tissue culture plates under an atmosphere of 5% O2, 5% CO2, and 90% N2. Individual wells contained 500-1,000 cells (depending on the growth rate) in a volume of 150 μL. Compounds were added at 10-fold concentration steps to a maximum of 20 μM and plates were incubated for five days, with ^3H-thymidine being added over the last 6 hrs. Cells were harvested and incorporated radioactivity measured. Duplicate samples were analyzed for each compound dose with multiple control samples.

p110α/p85 = p110α/p85 (Homo sapiens, UniProt P42336); test: Inhibition of isolated enzyme p110α/p85 (lipid kinase, [γ-33P]ATP, TLC); type: biochemical; conditions: recombinant enzyme, 100 μM ATP, nine concentrations, average of two experiments
Experimental: (§2) Compounds were evaluated for their ability to inhibit Class I PI 3-kinase enzymes p110δ/p85, p110α/p85, and p110β/p85. Reaction mixtures comprising 0.1 μg of a recombinant enzyme, 10 μg of L-α-phosphatidylinositol, and 2× Lipid Kinase Buffer (40 mM Tris-HCl, pH 7.4, 200 mM NaCl, 1 mM EDTA), which contains either DMSO only as a control or the test compound in DMSO (the final DMSO concentration is 1%), were activated by the addition of an ATP mix (5 mM MgCl2, 100 μM ATP, and 0.1 μL [γ^33P]ATP). Reactions were incubated at room temperature for 1 hr, and then stopped by the addition of 1M HCl. The lipids were then extracted using a two step procedure. Firstly, 200 μL of chloroform/methanol (1:1) was added, the biphasic reactions mixed and centrifuged briefly, and the inorganic phase was removed and discarded. Following this, 80 μL of methanol:HCl (1:1) was added and the same procedure followed. The organic phase (70 μL) was then transferred to a clean 1.6 mL tube and the reactions were dried using a Speedvac, with no heating, for 30 min. The reactions were spotted onto TLC plates (Merck Ltd) and developed for 1 hr in propanol-1:2 M acetic acid (13:7). The TLC plates were then dried at room temperature and quantified using a phosphorimager (StormImager, Amersham). Nine compound concentrations were used for each test compound to determine its IC50 value. Each experiment was performed twice and the average IC50 value is used herein.

NZOV9 = test: Cellular growth inhibition, NZOV9 (3H-thymidine incorporation); type: cell-based, human
Experimental: as §1

p110β/p85 = p110β/p85 (Homo sapiens, UniProt P42338); test: Inhibition of isolated enzyme p110β/p85 (lipid kinase, [γ-33P]ATP, TLC); type: biochemical; conditions: recombinant enzyme, 100 μM ATP, nine concentrations, average of two experiments
Experimental: as §2

p110δ/p85 = p110δ/p85 (Homo sapiens, UniProt O00329); test: Inhibition of isolated enzyme p110δ/p85 (lipid kinase, [γ-33P]ATP, TLC); type: biochemical; conditions: recombinant enzyme, 100 μM ATP, nine concentrations, average of two experiments
Experimental: as §2

PI3K = conditions: reversible inhibitors, literature; cited from earlier work
human tumor xenografts = conditions: mouse, in vivo; cited from earlier work
[1] = Homo sapiens, NZB5, five days incubation, 3H-thymidine over the last 6 hrs, read-out: Cell IC50 NZB5
[2] = Homo sapiens, NZOV9, five days incubation, 3H-thymidine over the last 6 hrs, read-out: Cell IC50 NZOV9

p110α/p85, sequence (P42336 whole entry): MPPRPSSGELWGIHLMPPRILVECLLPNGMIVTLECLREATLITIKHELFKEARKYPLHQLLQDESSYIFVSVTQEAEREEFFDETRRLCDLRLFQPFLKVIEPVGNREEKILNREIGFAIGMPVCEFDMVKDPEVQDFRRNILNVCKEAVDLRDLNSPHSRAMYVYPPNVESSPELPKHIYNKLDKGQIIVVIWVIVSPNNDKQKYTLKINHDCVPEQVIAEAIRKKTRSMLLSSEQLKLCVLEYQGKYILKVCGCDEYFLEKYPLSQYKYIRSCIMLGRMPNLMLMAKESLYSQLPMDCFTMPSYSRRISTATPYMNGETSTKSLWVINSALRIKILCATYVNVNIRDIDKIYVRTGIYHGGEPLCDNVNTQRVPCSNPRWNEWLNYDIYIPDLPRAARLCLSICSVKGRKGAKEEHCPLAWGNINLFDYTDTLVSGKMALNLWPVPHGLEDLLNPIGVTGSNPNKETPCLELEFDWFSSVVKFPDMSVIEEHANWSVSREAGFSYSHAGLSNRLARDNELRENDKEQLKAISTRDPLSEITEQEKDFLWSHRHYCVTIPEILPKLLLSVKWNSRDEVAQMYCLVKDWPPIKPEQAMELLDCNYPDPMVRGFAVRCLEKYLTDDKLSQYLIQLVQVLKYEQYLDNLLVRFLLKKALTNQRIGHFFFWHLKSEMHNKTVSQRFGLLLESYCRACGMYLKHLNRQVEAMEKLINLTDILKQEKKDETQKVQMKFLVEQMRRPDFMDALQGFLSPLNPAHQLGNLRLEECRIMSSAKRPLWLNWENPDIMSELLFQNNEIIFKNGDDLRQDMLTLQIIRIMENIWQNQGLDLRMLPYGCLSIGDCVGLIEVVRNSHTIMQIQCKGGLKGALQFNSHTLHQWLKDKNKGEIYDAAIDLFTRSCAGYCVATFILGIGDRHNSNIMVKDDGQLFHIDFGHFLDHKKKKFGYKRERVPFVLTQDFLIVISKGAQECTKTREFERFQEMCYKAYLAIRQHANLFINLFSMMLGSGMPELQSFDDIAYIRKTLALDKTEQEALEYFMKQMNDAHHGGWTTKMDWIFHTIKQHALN
p110α/p85, sequence (P27986 whole entry partner): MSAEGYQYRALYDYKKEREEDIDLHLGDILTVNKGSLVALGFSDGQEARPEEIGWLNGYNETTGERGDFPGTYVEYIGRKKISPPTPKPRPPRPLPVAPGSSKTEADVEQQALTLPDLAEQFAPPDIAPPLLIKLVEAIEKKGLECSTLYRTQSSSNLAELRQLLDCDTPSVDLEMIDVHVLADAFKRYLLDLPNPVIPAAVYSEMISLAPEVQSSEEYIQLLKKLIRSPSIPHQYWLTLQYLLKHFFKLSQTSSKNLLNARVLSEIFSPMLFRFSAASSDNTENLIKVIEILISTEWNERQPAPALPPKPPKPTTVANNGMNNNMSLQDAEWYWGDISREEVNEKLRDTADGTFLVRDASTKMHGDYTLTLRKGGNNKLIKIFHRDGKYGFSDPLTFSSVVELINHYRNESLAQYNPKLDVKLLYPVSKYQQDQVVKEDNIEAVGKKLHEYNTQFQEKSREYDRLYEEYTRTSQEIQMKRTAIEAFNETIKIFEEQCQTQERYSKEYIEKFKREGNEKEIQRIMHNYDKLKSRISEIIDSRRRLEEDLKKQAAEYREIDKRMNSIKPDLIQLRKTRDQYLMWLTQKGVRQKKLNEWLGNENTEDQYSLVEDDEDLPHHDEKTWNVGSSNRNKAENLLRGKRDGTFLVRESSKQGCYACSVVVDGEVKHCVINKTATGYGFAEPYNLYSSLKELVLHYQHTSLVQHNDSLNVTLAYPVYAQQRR
p110β/p85, sequence (P42338 whole entry, species assumed): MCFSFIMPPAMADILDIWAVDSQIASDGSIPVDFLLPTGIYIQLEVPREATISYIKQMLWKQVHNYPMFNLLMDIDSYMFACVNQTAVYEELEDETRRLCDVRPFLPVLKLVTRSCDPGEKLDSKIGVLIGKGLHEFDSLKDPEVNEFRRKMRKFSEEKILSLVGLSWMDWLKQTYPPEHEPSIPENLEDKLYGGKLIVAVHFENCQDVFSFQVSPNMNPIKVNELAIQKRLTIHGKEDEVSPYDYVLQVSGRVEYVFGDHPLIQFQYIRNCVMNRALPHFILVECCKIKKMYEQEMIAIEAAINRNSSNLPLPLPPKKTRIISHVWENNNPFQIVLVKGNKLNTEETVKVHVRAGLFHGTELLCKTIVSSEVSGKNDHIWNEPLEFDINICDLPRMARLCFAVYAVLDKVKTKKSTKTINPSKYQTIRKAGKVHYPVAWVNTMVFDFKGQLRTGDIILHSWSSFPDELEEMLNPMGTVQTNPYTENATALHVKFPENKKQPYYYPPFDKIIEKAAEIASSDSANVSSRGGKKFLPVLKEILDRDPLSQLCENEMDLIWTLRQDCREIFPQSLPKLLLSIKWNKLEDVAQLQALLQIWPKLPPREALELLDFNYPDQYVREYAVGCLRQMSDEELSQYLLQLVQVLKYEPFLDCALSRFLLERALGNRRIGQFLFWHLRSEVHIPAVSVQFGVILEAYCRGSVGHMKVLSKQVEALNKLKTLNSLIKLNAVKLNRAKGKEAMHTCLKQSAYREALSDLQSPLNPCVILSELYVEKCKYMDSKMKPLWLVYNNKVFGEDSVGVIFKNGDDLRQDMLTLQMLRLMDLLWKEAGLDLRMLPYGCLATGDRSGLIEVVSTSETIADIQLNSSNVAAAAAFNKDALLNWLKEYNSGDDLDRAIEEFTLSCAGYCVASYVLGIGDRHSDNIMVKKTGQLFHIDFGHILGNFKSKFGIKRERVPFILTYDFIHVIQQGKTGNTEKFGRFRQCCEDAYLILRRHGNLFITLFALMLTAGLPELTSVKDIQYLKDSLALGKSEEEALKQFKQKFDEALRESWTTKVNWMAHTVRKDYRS
p110β/p85, sequence (P27986 whole entry partner, species assumed): as the sequence (P27986 whole entry partner) above
p110δ/p85, sequence (O00329 whole entry, species assumed): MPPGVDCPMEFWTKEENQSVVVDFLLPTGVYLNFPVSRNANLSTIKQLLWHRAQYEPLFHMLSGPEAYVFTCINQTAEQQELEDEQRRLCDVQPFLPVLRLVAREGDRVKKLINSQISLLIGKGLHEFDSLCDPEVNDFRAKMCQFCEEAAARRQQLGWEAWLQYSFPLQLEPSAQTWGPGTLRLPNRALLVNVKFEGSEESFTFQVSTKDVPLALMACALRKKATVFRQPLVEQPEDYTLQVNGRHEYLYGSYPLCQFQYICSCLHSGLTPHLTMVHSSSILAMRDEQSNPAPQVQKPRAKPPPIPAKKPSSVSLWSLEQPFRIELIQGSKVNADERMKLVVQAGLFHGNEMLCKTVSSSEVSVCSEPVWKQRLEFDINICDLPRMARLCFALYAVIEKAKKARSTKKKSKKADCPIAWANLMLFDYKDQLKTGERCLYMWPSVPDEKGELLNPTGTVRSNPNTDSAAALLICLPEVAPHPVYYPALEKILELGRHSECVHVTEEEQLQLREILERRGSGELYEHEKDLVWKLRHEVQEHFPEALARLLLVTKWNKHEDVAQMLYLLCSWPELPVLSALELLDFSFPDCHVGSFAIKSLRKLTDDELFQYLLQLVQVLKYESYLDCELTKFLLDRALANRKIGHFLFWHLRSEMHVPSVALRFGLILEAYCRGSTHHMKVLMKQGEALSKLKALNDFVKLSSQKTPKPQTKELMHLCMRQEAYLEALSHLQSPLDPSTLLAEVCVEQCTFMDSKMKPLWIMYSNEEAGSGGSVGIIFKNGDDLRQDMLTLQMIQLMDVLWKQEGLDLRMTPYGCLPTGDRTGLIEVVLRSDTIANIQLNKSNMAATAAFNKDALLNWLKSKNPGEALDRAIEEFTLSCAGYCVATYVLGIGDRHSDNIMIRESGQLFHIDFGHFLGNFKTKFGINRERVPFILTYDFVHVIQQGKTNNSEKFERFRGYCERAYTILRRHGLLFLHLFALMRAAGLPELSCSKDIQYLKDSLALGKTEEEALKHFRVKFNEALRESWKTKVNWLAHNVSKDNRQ
p110δ/p85, sequence (P27986 whole entry partner, species assumed): as the sequence (P27986 whole entry partner) above

`C=CS(=O)(=O)N1CCN(c2nc(N3CCOCC3)nc(-n3c(C(F)F)nc4c(OC)cccc43)n2)CC1` [Example 3, 2-(difluoromethyl)-4-methoxy-1-{4-(4-morpholinyl)-6-[4-(vinylsulfonyl)-1-piperazinyl]-1,3,5-triazin-2-yl}-1H-benzimidazole] showed an IC50 (NZB5; [1]) of 100 to 1000 nM, an IC50 (p110α/p85) of less than 100 nM and an IC50 (NZOV9; [2]) of less than 100 nM. It also gave an IC50 (p110β/p85) of less than 100 nM, an IC50 (p110δ/p85) of less than 100 nM and a melting point of 242 to 244 °C.
`COc1cccc2c1nc(C(F)F)n2-c1nc(N2CCOCC2)cc(N(C)C2CCN(S(C)(=O)=O)CC2)n1` [Example 6, 2-[2-(difluoromethyl)-4-methoxy-1H-benzimidazol-1-yl]-N-methyl-N-[1-(methylsulfonyl)-4-piperidinyl]-6-(4-morpholinyl)-4-pyrimidinamine] gave an IC50 (NZB5; [1]) of 100 to 1000 nM, an IC50 (p110α/p85) of less than 100 nM and an IC50 (NZOV9; [2]) of less than 100 nM. For the same molecule, the IC50 (p110β/p85) was less than 100 nM, the IC50 (p110δ/p85) was less than 100 nM and the melting point was 191 to 193 °C.
Work on `CN(C)CCCOc1cccc2c1nc(C(F)F)n2-c1nc(OC2CCN(S(C)(=O)=O)CC2)nc(N2CCOCC2)n1` [Example 7, N-[3-({2-(difluoromethyl)-1-[4-{[1-(methylsulfonyl)-4-piperidinyl]oxy}-6-(4-morpholinyl)-1,3,5-triazin-2-yl]-1H-benzimidazol-4-yl}oxy)propyl]-N,N-dimethylamine] yielded an IC50 (NZB5; [1]) of 100 to 1000 nM, an IC50 (NZOV9; [2]) of 100 to 1000 nM and an IC50 (p110β/p85) greater than 1000 nM.
Work on `COc1cccc2c1nc(C(F)F)n2-c1nc(N2CCOCC2)nc(N(CCCN(C)C)C2CCN(S(=O)(=O)CCl)CC2)n1` [Example 59, N^1-{1-[(chloromethyl)sulfonyl]-4-piperidinyl}-N^1-[4-[2-(difluoromethyl)-4-methoxy-1H-benzimidazol-1-yl]-6-(4-morpholinyl)-1,3,5-triazin-2-yl]-N^3,N^3-dimethyl-1,3-propanediamine] yielded an IC50 (p110β/p85) greater than 1000 nM.
`COc1cccc2c1nc(C(F)F)n2-c1nc(N2CCOCC2)nc(N2CCC(NS(=O)(=O)CCl)CC2)n1` [Example 61, chloro-N-{1-[4-[2-(difluoromethyl)-4-methoxy-1H-benzimidazol-1-yl]-6-(4-morpholinyl)-1,3,5-triazin-2-yl]-4-piperidinyl}methanesulfonamide] showed an IC50 (p110α/p85) of less than 100 nM, an IC50 (p110δ/p85) of less than 100 nM and a melting point of 230 to 232 °C.
For `COc1cccc2c1nc(C(F)F)n2-c1nc(N[C@H]2CC[C@H](NS(C)(=O)=O)CC2)nc(N2CCOCC2)n1` [Example 78, trans-N-(4-{[4-[2-(difluoromethyl)-4-methoxy-1H-benzimidazol-1-yl]-6-(4-morpholinyl)-1,3,5-triazin-2-yl]amino}cyclohexyl)methanesulfonamide], the IC50 (NZB5; Homo sapiens, NZB5, read-out: Cell IC50 NZB5) was 100 to 1000 nM, the IC50 (NZOV9; Homo sapiens, NZOV9, read-out: Cell IC50 NZOV9) was less than 100 nM and the melting point was 269 to 272 °C.
With `COc1cccc2c1nc(C(F)F)n2-c1nc(N2CCOCC2)nc(N2CCN(S(=O)(=O)C(F)(F)F)CC2)n1` [Example 86, 2-(difluoromethyl)-4-methoxy-1-(4-(4-morpholinyl)-6-{4-[(trifluoromethyl)-sulfonyl]-1-piperazinyl}-1,3,5-triazin-2-yl)-1H-benzimidazole] the IC50 (p110α/p85) was 100 to 1000 nM, the IC50 (p110δ/p85) was greater than 1000 nM and the melting point was 272 to 273 °C.
`COc1cccc2c1nc(C(F)F)n2-c1nc(N2CCOCC2)nc(N2CCC(NS(=O)(=O)C(F)(F)F)CC2)n1` [Example 87, N-{1-[4-[2-(difluoromethyl)-4-methoxy-1H-benzimidazol-1-yl]-6-(4-morpholinyl)-1,3,5-triazin-2-yl]-4-piperidinyl}trifluoromethanesulfonamide] showed an IC50 (p110α/p85) of less than 100 nM, an IC50 (p110δ/p85) of 100 to 1000 nM and a melting point of 282 to 285 °C.
In the case of `COc1cccc2c1nc(C(F)F)n2-c1nc(N2CCOCC2)nc(N2CC(NS(=O)(=O)C(F)(F)F)C2)n1` [Example 88, N-{1-[4-[2-(difluoromethyl)-4-methoxy-1H-benzimidazol-1-yl]-6-(4-morpholinyl)-1,3,5-triazin-2-yl]-3-azetidinyl}(trifluoro)methanesulfonamide], the IC50 (p110α/p85) is reported as less than 100 nM and the IC50 (p110δ/p85) is reported as 100 to 1000 nM.
For `COc1cccc2c1nc(C(F)F)n2-c1nc(-c2ccc(S(=O)(=O)N3CCN(C)CC3)cc2)nc(N2CCOCC2)n1` [Example 95, 2-(difluoromethyl)-4-methoxy-1-[4-{4-[(4-methyl-1-piperazinyl)sulfonyl]phenyl}-6-(4-morpholinyl)-1,3,5-triazin-2-yl]-1H-benzimidazole], the IC50 (p110δ/p85) was greater than 1000 nM.
With `COc1cccc2c1nc(C(F)F)n2-c1nc(Nc2ccc(NS(C)(=O)=O)nc2)nc(N2CCOCC2)n1` [Example 100, N-(5-{[4-[2-(difluoromethyl)-4-methoxy-1H-benzimidazol-1-yl]-6-(4-morpholinyl)-1,3,5-triazin-2-yl]amino}-2-pyridinyl)methanesulfonamide] the IC50 (NZB5; [1]) was 100 to 1000 nM, the IC50 (p110α/p85) was less than 100 nM and the IC50 (NZOV9; [2]) was less than 100 nM. It also gave an IC50 (p110δ/p85) of less than 100 nM and a melting point of 302 to 306 °C.
In the case of `COc1cccc2c1nc(C(F)F)n2-c1nc(Nc2ccc(N(C)S(C)(=O)=O)nc2)nc(N2CCOCC2)n1` [Example 101, N-(5-{[4-[2-(difluoromethyl)-4-methoxy-1H-benzimidazol-1-yl]-6-(4-morpholinyl)-1,3,5-triazin-2-yl]amino}-2-pyridinyl)-N-methylmethanesulfonamide], the IC50 (NZB5; [1]) is reported as less than 100 nM, the IC50 (p110α/p85) is reported as less than 100 nM and the IC50 (NZOV9; [2]) is reported as less than 100 nM. The IC50 (p110β/p85) was 100 to 1000 nM, the IC50 (p110δ/p85) was less than 100 nM and the melting point was 250 to 253 °C.
For `Cc1ccccc1-n1c(Cn2cnc3c(N)ncnc32)nc2cccc(C)c2c1=O` [IC87114], the PI3K isoform selectivity (PI3K) is listed as “δ-selective”.
In the case of `O=c1cc(N2CCOCC2)oc2c(-c3ccccc3)cccc12` [LY294002], the tolerability (human tumor xenografts) is given as “well-tolerated”.
In the case of `Oc1cccc(-c2nc(N3CCOCC3)c3oc4ncccc4c3n2)c1` [PI103], the PI3K isoform selectivity (PI3K) is given as “slightly α-selective”.
In the case of `Cc1cc(C(C)Nc2ccccc2)c2nc(N3CCOCC3)cc(=O)n2c1` (stereo not shown) [TGX221], the PI3K isoform selectivity (PI3K) is given as “β-selective”.
For `FC(F)c1nc2ccccc2n1-c1nc(N2CCOCC2)nc(N2CCOCC2)n1` [ZSTK474], the PI3K isoform selectivity (PI3K) is listed as “non-selective”.
For “N-{(3S)-1-[4-[2-(difluoromethyl)-4-methoxy-1H-benzimidazol-1-yl]-6-(4-morpholinyl)-1,3,5-triazin-2-yl]piperidinyl}-N-[3-(dimethylamino)propyl]methane-sulfonamide [Example 63]”, the IC50 (NZB5; five days incubation, 3H-thymidine over the last 6 hrs, read-out: Cell IC50 NZB5) was 100 to 1000 nM, the IC50 (p110α/p85) was 100 to 1000 nM and the IC50 (NZOV9; five days incubation, 3H-thymidine over the last 6 hrs, read-out: Cell IC50 NZOV9) was 100 to 1000 nM. For the same molecule, the IC50 (p110β/p85) was greater than 1000 nM and the IC50 (p110δ/p85) was 100 to 1000 nM.

Source: US8772287B2, “Pyrimidinyl and 1,3,5-triazinyl benzimidazole sulfonamides and their use in cancer therapy” (VetDC, Inc., priority 2009, dated 2014)
